The values that follow come from US10259810B2, “N-sulfonylated pyrazolo[3,4-b]pyridin-6-carboxamides and method of use” (AbbVie S.à.r.l., priority 2015, dated 2019).

Structures are written as SMILES.

The target in assay [1] is T1, ΔF508-CFTR (Homo sapiens, UniProt P13569, DEL508-508).
T1 construct: host or cells: CFBE41o-, doxycycline-inducible
Description: CFTR cell surface levels using HRP-tagged ΔF508-CFTR expressing CFBE cells, in the presence of a co-corrector. Type of assay: cell-based. The settings on record: HRP-tagged ΔF508-CFTR CFBE cells, in the presence of 3 μM co-corrector; for EC50: read-out: EC50. Summed up:
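Chemiluminescent read-out of surface HRP (15 min, dark) after PBS washes. Activity is normalized as 100×(sample−DMSO)/(3 μM co-corrector alone−DMSO).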

The target of assay [2] is T1, ΔF508-CFTR. Kind of assay: CFTR cell surface levels using HRP-tagged ΔF508-CFTR expressing CFBE cells, intrinsic corrector capacity. Type of assay: cell-based. More on the design: % Activation: concentration or dose not given beside the values. The settings on record: HRP-tagged ΔF508-CFTR expressing CFBE41o- cells, compound alone (intrinsic corrector capacity), 20 hours at 33° C.; for EC50: read-out: EC50. Put shortly: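 Read-out: chemiluminescent HRP activity of ECL4-HRP-tagged ΔF508-CFTR at the cell surface, 15 min substrate in dark. Normalized as 100×(sample−DMSO)/(positive control−DMSO).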

A word on the EC50: it is the midpoint of the concentration-response curve.

T1 sequence (P13569 with tags, fused parts or gaps DEL508-508): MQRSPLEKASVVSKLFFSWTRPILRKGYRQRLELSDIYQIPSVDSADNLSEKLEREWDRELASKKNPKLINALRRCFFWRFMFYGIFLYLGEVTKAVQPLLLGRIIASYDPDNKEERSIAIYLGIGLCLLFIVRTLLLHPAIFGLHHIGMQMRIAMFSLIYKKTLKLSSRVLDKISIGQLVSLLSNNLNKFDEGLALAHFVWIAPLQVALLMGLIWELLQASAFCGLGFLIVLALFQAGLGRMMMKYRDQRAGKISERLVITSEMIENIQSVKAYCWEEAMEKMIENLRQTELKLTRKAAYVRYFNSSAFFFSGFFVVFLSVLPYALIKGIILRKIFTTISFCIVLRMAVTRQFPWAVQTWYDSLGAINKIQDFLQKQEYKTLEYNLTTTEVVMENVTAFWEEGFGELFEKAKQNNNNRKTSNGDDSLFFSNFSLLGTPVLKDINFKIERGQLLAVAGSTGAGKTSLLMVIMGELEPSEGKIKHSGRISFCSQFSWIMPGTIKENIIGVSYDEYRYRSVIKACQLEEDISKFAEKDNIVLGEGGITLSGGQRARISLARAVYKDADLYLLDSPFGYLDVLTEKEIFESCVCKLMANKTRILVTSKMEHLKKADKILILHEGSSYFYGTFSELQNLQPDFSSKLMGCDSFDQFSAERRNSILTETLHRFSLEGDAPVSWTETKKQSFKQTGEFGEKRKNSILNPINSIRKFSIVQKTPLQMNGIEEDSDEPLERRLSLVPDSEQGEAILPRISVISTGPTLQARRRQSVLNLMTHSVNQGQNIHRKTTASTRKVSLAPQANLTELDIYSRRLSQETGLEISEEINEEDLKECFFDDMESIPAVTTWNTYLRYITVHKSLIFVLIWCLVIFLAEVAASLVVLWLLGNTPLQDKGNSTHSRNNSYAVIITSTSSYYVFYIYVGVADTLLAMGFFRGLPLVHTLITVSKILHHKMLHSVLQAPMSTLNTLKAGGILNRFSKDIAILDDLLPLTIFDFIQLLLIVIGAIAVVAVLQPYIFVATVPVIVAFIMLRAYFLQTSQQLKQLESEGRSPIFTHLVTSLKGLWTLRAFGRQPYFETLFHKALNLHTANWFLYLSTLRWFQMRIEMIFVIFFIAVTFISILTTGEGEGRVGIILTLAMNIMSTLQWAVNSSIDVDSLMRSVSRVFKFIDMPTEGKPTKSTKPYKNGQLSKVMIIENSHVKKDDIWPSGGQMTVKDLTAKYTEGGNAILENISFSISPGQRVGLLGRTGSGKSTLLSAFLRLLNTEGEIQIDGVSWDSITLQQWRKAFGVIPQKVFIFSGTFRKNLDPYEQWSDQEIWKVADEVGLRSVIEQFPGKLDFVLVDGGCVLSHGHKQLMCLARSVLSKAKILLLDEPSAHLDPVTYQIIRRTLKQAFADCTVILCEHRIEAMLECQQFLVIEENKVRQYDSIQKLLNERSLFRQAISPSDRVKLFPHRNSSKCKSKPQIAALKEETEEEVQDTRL

As to `CC(C)c1nn(-c2ccc(F)cc2)c2nc(C(=O)NS(C)(=O)=O)cc(OCCCN(C)C)c12` [Compound 299, 4-[3-(dimethylamino)propoxy]-1-(4-fluorophenyl)-N-(methanesulfonyl)-3-(propan-2-yl)-1H-pyrazolo[3,4-b]pyridine-6-carboxamide], the “% Activation” value on ΔF508-CFTR [1] stood at 267.2%; on ΔF508-CFTR [2], 81.41%. For the same compound, the values for the EC50 at ΔF508-CFTR [1] and on ΔF508-CFTR [2] were 2510 nM and 3330 nM, respectively.

As to `CS(=O)(=O)NC(=O)c1cc(-c2ccc(N3CCC(C#N)CC3)nc2)c2c(OC3COC3)nn(-c3ccccc3)c2n1` [Compound 300, 4-[6-(4-cyanopiperidin-1-yl)pyridin-3-yl]-N-(methanesulfonyl)-3-[(oxetan-3-yl)oxy]-1-phenyl-1H-pyrazolo[3,4-b]pyridine-6-carboxamide], the “% Activation” value at ΔF508-CFTR [1] was determined as 266.55%; at ΔF508-CFTR [2], 119.9%. Moreover, the EC50 is 109 nM on ΔF508-CFTR [1] and 309 nM on ΔF508-CFTR [2].

As for `CN(C)CCCOc1cc(C(=O)NS(C)(=O)=O)nc2c1c(C1CCC1)nn2-c1ccccc1` [Compound 303, 3-cyclobutyl-4-[3-(dimethylamino)propoxy]-N-(methanesulfonyl)-1-phenyl-1H-pyrazolo[3,4-b]pyridine-6-carboxamide], on ΔF508-CFTR [1], the “% Activation” value is 339.95% and the EC50 was 834 nM. Besides, at ΔF508-CFTR [2], the “% Activation” value worked out at 149.9% and the EC50 was determined as 3330 nM.

As to `CC(C)c1nn(-c2ccc(F)cc2)c2nc(C(=O)NS(C)(=O)=O)cc(OCC3(C)CC(F)(F)C3)c12` [Compound 306, 4-[(3,3-difluoro-1-methylcyclobutyl)methoxy]-1-(4-fluorophenyl)-N-(methanesulfonyl)-3-(propan-2-yl)-1H-pyrazolo[3,4-b]pyridine-6-carboxamide], at ΔF508-CFTR [1], the “% Activation” value worked out at 321.1% and the EC50 came to 82.4 nM. On ΔF508-CFTR [2], the “% Activation” value was determined as 146.7% and the 50% effective concentration (EC50) was found to be 158 nM.

Turning to `CC(C)c1nn(-c2ccc(F)cc2)c2nc(C(=O)NS(C)(=O)=O)cc(OCCCN3CCCCC3)c12` [Compound 307, 1-(4-fluorophenyl)-N-(methanesulfonyl)-4-[3-(piperidin-1-yl)propoxy]-3-(propan-2-yl)-1H-pyrazolo[3,4-b]pyridine-6-carboxamide], the “% Activation” value on ΔF508-CFTR [1] was found to be 299.25%; on ΔF508-CFTR [2], 172.7%. In addition, the EC50 on ΔF508-CFTR [1] came to 1280 nM; at ΔF508-CFTR [2], 3330 nM.

`CC(C)c1nn(-c2ccc(F)cc2)c2nc(C(=O)NS(C)(=O)=O)cc(OCCN(C(C)C)C3COC3)c12` [Compound 309, 1-(4-fluorophenyl)-N-(methanesulfonyl)-4-{2-[(oxetan-3-yl)(propan-2-yl)amino]ethoxy}-3-(propan-2-yl)-1H-pyrazolo[3,4-b]pyridine-6-carboxamide]: at ΔF508-CFTR [1], the “% Activation” value is 303.6% and the EC50 is 224 nM. At ΔF508-CFTR [2], the “% Activation” value is recorded as 149% and the EC50 worked out at 444 nM.

In the case of `CC(C)c1nn(-c2ccc(F)cc2)c2nc(C(=O)NS(C)(=O)=O)cc(OCC3COCCN3C(C)C)c12` (stereo not drawn) [Compound 310, 1-(4-fluorophenyl)-N-(methanesulfonyl)-3-(propan-2-yl)-4-{[4-(propan-2-yl)morpholin-3-yl]methoxy}-1H-pyrazolo[3,4-b]pyridine-6-carboxamide], at ΔF508-CFTR [1], the “% Activation” value is listed as 251.5% and the EC50 was 924 nM. Further, on ΔF508-CFTR [2], the “% Activation” value is 66.84% and the EC50 came out at 692 nM.

For the compound `COCCS(=O)(=O)NC(=O)c1cc(OCC2CCOCC2)c2c(C3CCC3)nn(-c3ccccc3)c2n1` [Compound 315, 3-cyclobutyl-N-(2-methoxyethanesulfonyl)-4-[(oxan-4-yl)methoxy]-1-phenyl-1H-pyrazolo[3,4-b]pyridine-6-carboxamide], at ΔF508-CFTR [1], the “% Activation” value was 315.5% and the EC50 amounted to 102 nM. Also, on ΔF508-CFTR [2], the “% Activation” value amounted to 154.87% and the EC50 is 218 nM.

Regarding `CC(C)c1nn(-c2ccc(F)cc2)c2nc(C(=O)NS(C)(=O)=O)cc(N3CCC(N(C)C)CC3)c12` [Compound 319, 4-[4-(dimethylamino)piperidin-1-yl]-1-(4-fluorophenyl)-N-(methanesulfonyl)-3-(propan-2-yl)-1H-pyrazolo[3,4-b]pyridine-6-carboxamide], on ΔF508-CFTR [1], the “% Activation” value turned out to be 232% and the EC50 came to 980 nM. Besides, at ΔF508-CFTR [2], the “% Activation” value is reported as 34.315% and the EC50 came to 298 nM.

Consider `CS(=O)(=O)NC(=O)c1cc(N2CCC(O)(CC#N)CC2)c2c(C3CCC3)nn(-c3ccccc3)c2n1` [Compound 326, 4-[4-(cyanomethyl)-4-hydroxypiperidin-1-yl]-3-cyclobutyl-N-(methanesulfonyl)-1-phenyl-1H-pyrazolo[3,4-b]pyridine-6-carboxamide], for which, on ΔF508-CFTR [1], the “% Activation” value was 325.3% and the EC50 stood at 730 nM. At ΔF508-CFTR [2], the “% Activation” value is recorded as 167.1% and the EC50 amounted to 2380 nM.

With `CC(C)c1nn(-c2cccc(N(C)C)c2)c2nc(C(=O)NS(=O)(=O)CCCN=[N+]=[N-])cc(-c3ccc(N=[N+]=[N-])cc3)c12` [Compound 327, 4-(4-azidophenyl)-N-(3-azidopropane-1-sulfonyl)-1-[3-(dimethylamino)phenyl]-3-(propan-2-yl)-1H-pyrazolo[3,4-b]pyridine-6-carboxamide], at ΔF508-CFTR [1], the “% Activation” value is on record as 433.9% and the EC50 came to 99.9 nM. For the same compound, on ΔF508-CFTR [2], the “% Activation” value was found to be 239.4% and the EC50 was determined as 145 nM.

Regarding `CS(=O)(=O)NC(=O)c1cc(N2CCN(CC(F)(F)F)CC2)c2c(C3CCC3)nn(-c3ccccc3)c2n1` [Compound 329, 3-cyclobutyl-N-(methanesulfonyl)-1-phenyl-4-[4-(2,2,2-trifluoroethyl)piperazin-1-yl]-1H-pyrazolo[3,4-b]pyridine-6-carboxamide], the figures for the “% Activation” value at ΔF508-CFTR [1] and on ΔF508-CFTR [2] were 318.4% and 163.85%, respectively. Besides, the EC50 at ΔF508-CFTR [1] was 777 nM; on ΔF508-CFTR [2], 158 nM.

Turning to `COCCS(=O)(=O)NC(=O)c1cc(N2CCN(CC(F)(F)F)CC2)c2c(C3CCC3)nn(-c3ccccc3)c2n1` [Compound 330, 3-cyclobutyl-N-(2-methoxyethanesulfonyl)-1-phenyl-4-[4-(2,2,2-trifluoroethyl)piperazin-1-yl]-1H-pyrazolo[3,4-b]pyridine-6-carboxamide], on ΔF508-CFTR [1], the “% Activation” value turned out to be 285.4% and the EC50 stood at 124 nM. Further, at ΔF508-CFTR [2], the “% Activation” value is 133.1% and the EC50 amounted to 213 nM.

With `CC(C)c1nn(-c2ccnc(N3CCOCC3)c2)c2nc(C(=O)NS(C)(=O)=O)cc(OCC3CCOCC3)c12` [Compound 336, N-(methanesulfonyl)-1-[2-(morpholin-4-yl)pyridin-4-yl]-4-[(oxan-4-yl)methoxy]-3-(propan-2-yl)-1H-pyrazolo[3,4-b]pyridine-6-carboxamide], at ΔF508-CFTR [1], the “% Activation” value was determined as 232.42% and the EC50 was found to be 282 nM. Further, at ΔF508-CFTR [2], the “% Activation” value is on record as 107.2% and the EC50 came out at 420 nM.

As for `CC(C)c1nn(-c2ccc(F)cc2)c2nc(C(=O)NS(C)(=O)=O)cc(N3CCNC(C(F)(F)F)C3)c12` (stereo not drawn) [Compound 339, 1-(4-fluorophenyl)-N-(methanesulfonyl)-3-(propan-2-yl)-4-[3-(trifluoromethyl)piperazin-1-yl]-1H-pyrazolo[3,4-b]pyridine-6-carboxamide], at ΔF508-CFTR [1], the “% Activation” value is on record as 295.5% and the EC50 came to 402 nM. Also, at ΔF508-CFTR [2], the “% Activation” value is 142.05% and the EC50 was 1400 nM.
